Earlier results, collected in patent publication EP0420232B1, “Water soluble derivatives of glycoside bioflavonoids, processes for their preparation and related pharmaceutical compositions” (EUROPEAN PHARMACY Srl, priority 1989, dated 1991).

Assays:
[1] = background statement
[2] = at room temperature; background statement

## COc1ccc(-c2cc(=O)c3c(O)cc(O[C@@H]4O[C@H](CO[C@@H]5O[C@@H](C)[C@H](O)[C@@H](O)[C@H]5O)[C@@H](O)[C@H](O)[C@H]4O)cc3o2)cc1O [diosmin, 7-ramnoglycoside of 5,7,3'-trihydroxy-4'-methoxyflavone]
[1]
  toxicity: devoid of toxicity

## C[C@@H]1O[C@@H](OC[C@H]2O[C@@H](Oc3c(-c4ccc(O)c(O)c4)oc4cc(O)cc(O)c4c3=O)[C@H](O)[C@@H](O)[C@@H]2O)[C@H](O)[C@H](O)[C@H]1O [rutin, 3-rutinoside of 3, 3', 4', 5,7-penthahydroxyflavone]
[2]
  solubility in water: very poorly soluble
[1]
  toxicity: devoid of toxicity
